Test results from paper PMC4444023 (PLoS ONE, 2015).
pIC50: −log10 of the molar value. “Also recorded” adds a separate entry of the source.

Columns and labels:
[1] = Solubility; type: physicochemical; settings: cambinol compared to GW4869
[2] = tested on: rat primary hippocampal neurons; experiment: Hippocampal neuronal survival (Hoechst 33342); type: cell-based; settings: for effect on TNF-α or IL-1β-induced neuron cell death (words): Hoechst 33342 staining
Procedure: All animal procedures were approved by the Johns Hopkins University Animal Care and Use Committee. Primary hippocampal neurons were prepared from day 18 decapitated embryos of Sprague-Dawley rats following previously described methods. Cells were seeded on polyethyleneimine (PEI)-coated slides in 12-well plates and cultured between 14–21 days. […] After 18 h, cells were stained with 50 μg/ml Hoeschst 33342 for 20 min and then fixed with 4% paraformaldehyde for 30 min. The number of living and apoptotic cells was determined by fluorescence microscopy. A minimum of 500 cells were counted per treatment condition. Results were normalized to control untreated cells and were representative of at least two independent experiments conducted in triplicate. Statistical evaluation of the data was done by Student’s t-test.

[3] = biological target: B. cereus nSMase (Bacillus cereus, UniProt P11889); experiment: Inhibition of bacterial nSMase (not shown); type: biochemical
[4] = tested on: Burkitt lymphoma xenografts; set-up: method as in PMID 16618762; settings: mice, cited from earlier work
[5] = tested on: BCL6-expressing Burkitt lymphoma cell lines; set-up: method as in PMID 16618762; settings: cited from earlier work
[6] = tested on: SIRT2; settings: NAD-dependent deacetylase activity; cited from earlier work
[7] = tested on: rat primary hippocampal neurons; experiment: Dendrite length (MAP2 imaging); type: cell-based; settings: for dendrite length, Mean: in µm (unit assumed)
Procedure: Quantification of neuronal morphology was done in primary hippocampal neurons plated in PEI-coated ultra-thin and optically clear flat bottom 96-well plates (Corning). […] Neurons were then fixed with 4% paraformaldehyde, and permeabilized with 0.1% Triton X-100 in phosphate-buffered saline (PBS-T) for 20 min at room temperature. Blocking was done for 1 h with 5% normal goat serum solution, then incubation with anti-MAP2 antibody (1:500, Sigma) was done, followed by three washes with PBS-T and 2 h incubation with Alexa 595 secondary antibody (1:500, Life Technologies). Dendrites were imaged with a 20X objective using a Zeiss Axio Observer Z1 microscope equipped with an Orca ER CCD camera (Hamamatsu Inc). A 6x6 image was obtained from each culture well, and a montage was created using Neurolucida imaging software (mbf Biosecience). The effects of the experimental treatments on dendrite length were determined and the results presented are the average of 5–6 individual experiments. Statistical significance was determined by one-way ANOVA analysis.

Sequence of B. cereus nSMase (P11889 28-333): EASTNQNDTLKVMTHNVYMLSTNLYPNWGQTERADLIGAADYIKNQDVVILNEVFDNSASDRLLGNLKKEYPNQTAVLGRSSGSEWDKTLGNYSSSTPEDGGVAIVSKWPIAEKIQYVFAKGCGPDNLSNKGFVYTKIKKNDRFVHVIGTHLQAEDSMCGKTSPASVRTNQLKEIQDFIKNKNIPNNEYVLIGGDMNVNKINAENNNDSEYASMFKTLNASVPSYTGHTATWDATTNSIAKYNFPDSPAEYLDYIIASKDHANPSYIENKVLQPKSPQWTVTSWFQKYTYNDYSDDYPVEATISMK

In the case of `O=c1[nH]c(=S)[nH]c(-c2ccccc2)c1Cc1c(O)ccc2ccccc12` [Cambinol, cambinol], the “aqueous solubility” value [1] was “significantly higher; also recorded: improved”, the “neuron survival, Mean (normalized to control untreated cells)” value ([2]; 100 ng/ml IL1β 18 h, 0.1 µM compound) was 77.25 and the “neuron survival, Mean (normalized to control untreated cells)” value ([2]; 100 ng/ml IL1β 18 h, 0.3 µM compound) was 74.03. For the same molecule, the “neuron survival, Mean (normalized to control untreated cells)” value ([2]; 100 ng/ml IL1β 18 h, 1 µM compound) was 84.51, the “neuron survival, Mean (normalized to control untreated cells)” value ([2]; 100 ng/ml IL1β 18 h, 3 µM compound) was 93.01 and the “neuron survival, Mean (normalized to control untreated cells)” value ([2]; 100 ng/ml IL1β 18 h, 10 µM compound) was 93.58. For the same molecule, the “neuron survival, Mean (normalized to control untreated cells)” value ([2]; 100 ng/ml IL1β 18 h, 25 µM compound) was 97.12, the “neuron survival, Mean (normalized to control untreated cells)” value ([2]; 100 ng/ml TNFα 18 h, 0.1 µM compound) was 78.25 and the “neuron survival, Mean (normalized to control untreated cells)” value ([2]; 100 ng/ml TNFα 18 h, 0.3 µM compound) was 82.52. The “neuron survival, Mean (normalized to control untreated cells)” value ([2]; 100 ng/ml TNFα 18 h, 1 µM compound) was 86.26, the “neuron survival, Mean (normalized to control untreated cells)” value ([2]; 100 ng/ml TNFα 18 h, 3 µM compound) was 90.17 and the “neuron survival, Mean (normalized to control untreated cells)” value ([2]; 100 ng/ml TNFα 18 h, 10 µM compound) was 91.48. For the same molecule, the “neuron survival, Mean (normalized to control untreated cells)” value ([2]; 100 ng/ml TNFα 18 h, 25 µM compound) was 92.36, the “effect on TNF-α or IL-1β-induced neuron cell death (words)” value [2] was “decreased” and the “effect on TNF-α or IL-1β-induced neuron cell death (words)” value ([2]; listed as cambinol) was “prevent; also recorded: inhibited; also recorded: protected”. For the same molecule, the “neuron survival, Mean (normalized to control untreated cells)” value ([2]; No IL1β, 25 µM compound) was 91.21, the pIC50 [3] was 5.30 and the “tolerability” value ([4]; doses as high as 100 mg/kg intravenously) was “well tolerated”. For the same molecule, the “anti-cancer efficacy” value [4] was “effective”, the “apoptosis” value [5] was “induced apoptosis” and the pIC50 [6] was 4.23. The “dendrite length, Mean” value ([7]; 100 ng/ml TNFα 18 h, 0.1 µM Cambinol) was 9111.111, the “dendrite length, Mean” value ([7]; 100 ng/ml TNFα 18 h, 0.3 µM Cambinol) was 11450 and the “dendrite length, Mean” value ([7]; 100 ng/ml TNFα 18 h, 1 µM Cambinol) was 13799. The “dendrite length, Mean” value ([7]; 100 ng/ml TNFα 18 h, 3 µM Cambinol) was 14262.5, the “dendrite length, Mean” value ([7]; 100 ng/ml TNFα 18 h, 10 µM Cambinol) was 18867 and the “dendrite length, Mean” value ([7]; 100 ng/ml TNFα 18 h, 30 µM Cambinol) was 16000. The “dendrite length, Mean” value ([7]; No TNFα, 30 µM Cambinol) was 15151.25 and the “effect on TNFα-induced dendrite damage” value ([7]; decrease in dendritic length) was “prevented; also recorded: protected”.
